{"source": "patent US11389471B2", "about": "“Systems and methods to improve organ or tissue function and organ or tissue transplant longevity” (Proterris Inc., priority 2014, dated 2022)", "origin": "cited, not measured here", "settings": "CO alveolar concentration of 25 ppm; CFK equation", "data": [{"smiles": "[C-]#[O+]", "note": "[CO, carbon monoxide]", "values": [{"measurement": "time to reach an equilibration point", "value": "about 20 hours"}]}]}
